Kd and Km data for three molecules are collected here from article PMC3092583, “Enzyme Mechanism and Slow-Onset Inhibition of Plasmodium falciparum Enoyl-Acyl Carrier Protein Reductase by an Inorganic Complex” (2011).

For data set [1], the target named is T1, P. falciparum ENR (PfENR), enoyl-acyl carrier protein reductase (Plasmodium falciparum, UniProt Q9BH77).
T1 construct: gene FabI
T1 sequence (Q9BH77 22-432): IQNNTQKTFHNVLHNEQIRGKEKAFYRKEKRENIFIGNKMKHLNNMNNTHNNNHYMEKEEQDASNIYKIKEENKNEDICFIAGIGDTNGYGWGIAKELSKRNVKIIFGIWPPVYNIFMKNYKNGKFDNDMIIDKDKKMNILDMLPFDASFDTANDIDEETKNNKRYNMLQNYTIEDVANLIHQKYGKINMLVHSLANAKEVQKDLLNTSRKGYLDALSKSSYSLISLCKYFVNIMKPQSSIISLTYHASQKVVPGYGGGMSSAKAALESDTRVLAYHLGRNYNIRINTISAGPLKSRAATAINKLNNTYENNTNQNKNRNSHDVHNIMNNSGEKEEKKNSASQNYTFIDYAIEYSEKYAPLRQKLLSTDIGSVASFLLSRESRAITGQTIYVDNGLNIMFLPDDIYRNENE
As to the kind of experiment: biochemical. Type of data set: binding.

Data set [2] addresses T1, P. falciparum ENR (PfENR), enoyl-acyl carrier protein reductase. As to the kind of experiment: biochemical. Type of data set: binding. This is another data set of the same source.
Substrate in data set [3]: C/C=C/C(=O)SCCNC(=O)CCNC(=O)[C@H](O)C(C)(C)COP(=O)(O)OP(=O)(O)OC[C@H]1O[C@@H](n2cnc3c(N)ncnc32)[C@H](O)[C@@H]1OP(=O)(O)O
As to the kind of experiment: steady-state initial velocity kinetics (KM) with purified enzyme; no fluorescence change with free enzyme. Type of data set: biochemical, Plasmodium falciparum. The settings on record: NADH proposed to bind to a modified form of the enzyme (F) after NAD+ release.

Like-named read-outs stand apart in the source and are kept apart here.

In data set [1], `CCCC(=O)SCCNC(=O)CCNC(=O)[C@H](O)C(C)(C)COP(=O)(O)OP(=O)(O)OC[C@H]1O[C@@H](n2cnc3c(N)ncnc32)[C@H](O)[C@@H]1OP(=O)(O)O` [butyryl-CoA] displayed a dissociation constant Kd of 1150 µM.

In data set [2], `NC(=O)C1=CN([C@@H]2O[C@H](COP(=O)(O)OP(=O)(O)OC[C@H]3O[C@@H](n4cnc5c(N)ncnc54)[C@H](O)[C@@H]3O)[C@@H](O)[C@H]2O)C=CC1` [NADH] showed a Kd of 398 µM.

B1: P. falciparum ENR (PfENR), enoyl-acyl carrier protein reductase (Plasmodium falciparum) (protein)
chain: T1 sequence (Q9BH77 22-432)
B1: the Km in data set [3] was 63 µM.
